Assay results: PubChem BioAssay AID624376 (Broad Institute, 2012)
Results filed as inconclusive are left out. Active and inactive are the calls of the source. How the calls were made is not given here.

Key:
[1] = tested on: LMP1-induced NF-kappaB luciferase reporter cells, luminescence; test: LMP1-driven NF-kB reporter inhibition, dose response, cell-based, luciferase reporter, luminescence, dry powder, set 2 (AID 624376)
[2] = as above; conditions: LMP1-induced NF-kappaB luciferase reporter cells, luminescence

C[C@H]1CN([C@@H](C)CO)S(=O)(=O)c2ccc(C#Cc3ccncc3)cc2O[C@H]1CN(C)C(=O)Nc1ccc2c(c1)OCO2
AC50 [1]: 19.7 µM

COc1cccc(C#Cc2ccc([C@@H]3[C@@H](C#N)N(C(=O)c4ccccn4)[C@@H]3CO)cc2)c1
AC50 [1]: 19.2 µM

C[C@@H]1CN([C@@H](C)CO)S(=O)(=O)c2ccc(C#Cc3ccncc3)cc2O[C@H]1CN(C)C(=O)Nc1ccc2c(c1)OCO2
AC50 [1]: 31.6 µM

CC(C)c1ccc(NC(=O)C[C@H]2CC[C@H]3[C@@H](COc4ccc(NC(=O)Nc5ccc(F)c(F)c5)cc4C(=O)N3C)O2)cc1
AC50 [1]: 22.2 µM

O=C(C[C@@H]1CC[C@H]2[C@@H](COC[C@H](O)CN2Cc2ccc(Oc3ccccc3)cc2)O1)N1CCc2ccccc2C1
AC50 [1]: 19.7 µM

O=C(C[C@@H]1C[C@H]2c3cc(NS(=O)(=O)c4ccc(F)cc4)ccc3O[C@H]2[C@@H](CO)O1)NCc1ccc(Oc2ccccc2)cc1
AC50 [1]: 15.3 µM

CC(C)NC(=O)N1Cc2cc(C(=O)NC3Cc4ccccc4C3)nc(-c3cccc(-c4cccnc4)c3)c2[C@@H]1CCO
AC50 [1]: 22 µM

Cc1cc(C(=O)Nc2ccc3c(c2)C(=O)N(C)[C@@H]2CC[C@@H](CC(=O)NCc4ccc(-c5ccccc5)cc4)O[C@H]2CO3)no1
AC50 [1]: 25.9 µM

N#C[C@@H]1[C@H](c2ccc(C#Cc3ccccc3F)cc2)[C@@H](CO)N1C(=O)c1cccnc1
AC50 [1]: 1.02 µM

N#C[C@H]1[C@H](c2ccc(C#Cc3ccccc3F)cc2)[C@@H](CO)N1C(=O)c1cccnc1
AC50 [1]: 15 µM

Cc1cc(C(=O)Nc2ccc3c(c2)C(=O)N(C)[C@H]2CC[C@@H](CC(=O)NCc4ccc(-c5ccccc5)cc4)O[C@H]2CO3)no1
AC50 [1]: 10.8 µM

Cc1ccc(S(=O)(=O)N(C)C[C@H]2Oc3cc(C#Cc4ccncc4)ccc3S(=O)(=O)N([C@@H](C)CO)C[C@H]2C)cc1
AC50 [1]: 21.4 µM

COc1ccccc1C#Cc1ccc([C@H]2[C@H](C#N)N(C(=O)C3CC3)[C@H]2CO)cc1
AC50 [1]: 30.5 µM

N#C[C@H]1[C@H](c2ccc(C#Cc3ccccc3F)cc2)[C@H](CO)N1C(=O)c1cccnc1
AC50 [1]: 12.6 µM

O=C(Nc1ccc(C(F)(F)F)cc1)Nc1ccc2c(c1)[C@@H]1C[C@H](CC(=O)N3CCc4ccccc4C3)O[C@H](CO)[C@@H]1O2
AC50 [1]: 18.3 µM

Cc1cc(C(=O)Nc2ccc3c(c2)C(=O)N(C)[C@H]2CC[C@H](CC(=O)NCc4ccc(-c5ccccc5)cc4)O[C@H]2CO3)no1
AC50 [1]: 14.7 µM

O=C(C[C@H]1C[C@@H]2c3cc(NS(=O)(=O)c4ccc(F)cc4)ccc3O[C@@H]2[C@@H](CO)O1)NCc1ccc(Oc2ccccc2)cc1
AC50 [1]: 13.5 µM

CN(C)C(=O)c1ccc(-c2cccc(-c3nc(C(=O)NCc4ccccc4)cc4c3[C@@H](CCO)N([S@](=O)C(C)(C)C)C4)c2)cc1
AC50 [1]: 13.7 µM

O=C(C[C@H]1C[C@@H]2c3cc(NC(=O)c4ccc5c(c4)OCO5)ccc3O[C@@H]2[C@@H](CO)O1)NCc1ccc(Oc2ccccc2)cc1
AC50 [1]: 24.5 µM

COc1ccccc1C#Cc1ccc2c(c1)O[C@H](CN(C)Cc1cccnc1)[C@H](C)CN([C@H](C)CO)S2(=O)=O
AC50 [1]: 22.9 µM

O=C(Nc1ccc(C(F)(F)F)cc1)Nc1ccc2c(c1)[C@@H]1C[C@H](CC(=O)N3CCc4ccccc4C3)O[C@@H](CO)[C@@H]1O2
AC50 [1]: 15.1 µM

Cc1cc(C(=O)Nc2ccc3c(c2)C(=O)N(C)[C@@H]2CC[C@H](CC(=O)NCc4ccc(-c5ccccc5)cc4)O[C@@H]2CO3)no1
AC50 [1]: 9.74 µM

CCCNC(=O)c1cc2c(c(-c3cccc(-c4cccc(F)c4)c3)n1)[C@H](CCO)N([S@@](=O)C(C)(C)C)C2
AC50 [1]: 22.7 µM

CN(C)c1ccc2c(c1)[C@@H]1C[C@@H](CC(=O)NCc3ccc(Oc4ccccc4)cc3)O[C@H](CO)[C@@H]1O2
AC50 [1]: 21.6 µM

CN(C)C(=O)c1cccc(-c2cccc(-c3nc(C(=O)NCc4ccccc4)cc4c3[C@@H](CCO)N([S@](=O)C(C)(C)C)C4)c2)c1
AC50 [1]: 16.9 µM

CC(C)NC(=O)N1Cc2cc(C(=O)NC3Cc4ccccc4C3)nc(-c3cccc(-c4cccnc4)c3)c2[C@H]1CCO
AC50 [1]: 33.6 µM

O=C(C[C@H]1CC[C@H]2[C@@H](COC[C@@H](O)CN2Cc2ccc3c(c2)OCO3)O1)Nc1ccc(-c2ccccc2)cc1
AC50 [1]: 24.1 µM

O=C(C[C@@H]1CC[C@@H]2[C@H](COC[C@@H](O)CN2Cc2ccc3c(c2)OCO3)O1)Nc1ccc(-c2ccccc2)cc1
AC50 [1]: 10.2 µM

CN1C(=O)c2cc(NC(=O)Cc3cccs3)ccc2OC[C@@H]2O[C@H](CC(=O)NCc3ccc(-c4ccccc4)cc3)CC[C@H]21
AC50 [1]: 33 µM

Cc1ccc(S(=O)(=O)N(C)C[C@H]2Oc3cc(C#Cc4ccncc4)ccc3S(=O)(=O)N([C@@H](C)CO)C[C@@H]2C)cc1
AC50 [1]: 21.2 µM

COc1ccc(-c2cccc(-c3nc(C(=O)NCC(F)(F)F)cc4c3[C@H](CCO)N([S@@](=O)C(C)(C)C)C4)c2)cc1
AC50 [1]: 24.3 µM

COc1ccccc1C#Cc1ccc2c(c1)O[C@H](CN(C)Cc1cccnc1)[C@H](C)CN([C@@H](C)CO)S2(=O)=O
AC50 [1]: 17.4 µM

CC(C)(C)[S@](=O)N1Cc2cc(C(=O)NCC(F)(F)F)nc(-c3cccc(-c4cccc(F)c4)c3)c2[C@@H]1CCO
AC50 [1]: 11.9 µM

CN1C(=O)c2cc(NC(=O)c3ccc(C(F)(F)F)cc3)ccc2OC[C@@H]2O[C@@H](CC(=O)NC3Cc4ccccc4C3)CC[C@H]21
AC50 [1]: 24.5 µM

O=C(C[C@@H]1CC[C@@H]2[C@H](COC[C@H](O)CN2Cc2ccc3c(c2)OCO3)O1)Nc1ccc(-c2ccccc2)cc1
AC50 [1]: 7.97 µM

C[C@@H]1CN([C@H](C)CO)S(=O)(=O)c2ccc(/C=C/c3ccccc3)cc2O[C@H]1CN(C)C(=O)NC1CCCCC1
AC50 [1]: 25.3 µM

CN(C)c1ccc2c(c1)[C@@H]1C[C@H](CC(=O)NCc3ccc(Oc4ccccc4)cc3)O[C@@H](CO)[C@@H]1O2
AC50 [1]: 9.81 µM

O=C(Nc1ccc(C(F)(F)F)cc1)Nc1ccc2c(c1)[C@H]1C[C@@H](CC(=O)N3CCc4ccccc4C3)O[C@@H](CO)[C@H]1O2
AC50 [1]: 27.9 µM

O=C(C[C@@H]1C[C@@H]2c3cc(NS(=O)(=O)c4ccc(F)cc4)ccc3O[C@@H]2[C@@H](CO)O1)NCc1ccc(Oc2ccccc2)cc1
AC50 [1]: 8.07 µM

CC(C)(C)[S@@](=O)N1Cc2cc(C(=O)NCc3ccccc3F)nc(-c3cccc(-c4cccnc4)c3)c2[C@H]1CCO
AC50 [1]: 35.6 µM

O=C(C[C@H]1C[C@H]2c3cc(NC(=O)c4ccc5c(c4)OCO5)ccc3O[C@H]2[C@H](CO)O1)NCc1ccc(Oc2ccccc2)cc1
AC50 [1]: 18.7 µM

C[C@@H]1CN([C@H](C)CO)C(=O)c2c(c3ccccc3n2C)-c2ccccc2CO[C@@H]1CN(C)C(=O)Nc1ccc(F)cc1
activity change, negative = inhibition ([2]; at 35 µM (top of the series)): 3.49% (inactive)

C[C@H](NC(=O)C[C@H]1C=C[C@@H](NC(=O)Cc2ccccn2)[C@@H](CO)O1)c1ccccc1
activity change, negative = inhibition ([2]; at 35 µM (top of the series)): -0.671% (inactive)

C[C@@H](NC(=O)C[C@@H]1C=C[C@@H](NC(=O)Cc2ccccn2)[C@@H](CO)O1)c1ccccc1
activity change, negative = inhibition ([2]; at 35 µM (top of the series)): -0.171% (inactive)

COc1ccccc1C#Cc1cnc2c(c1)C(=O)N([C@@H](C)CO)C[C@H](C)[C@@H](CN(C)C(=O)c1ccc3c(c1)OCO3)O2
AC50 [1]: 25.9 µM

C[C@H](NC(=O)C[C@@H]1C=C[C@@H](NC(=O)Cc2ccccn2)[C@@H](CO)O1)c1ccccc1
activity change, negative = inhibition ([2]; at 35 µM (top of the series)): 2.64% (inactive)

Cc1cc(C(=O)Nc2ccc3c(c2)C(=O)N(C)[C@@H]2CC[C@H](CC(=O)NCc4ccc(-c5ccccc5)cc4)O[C@H]2CO3)no1
AC50 [1]: 1.6 µM

N#C[C@H]1[C@@H](c2ccc(-c3cccnc3)cc2)[C@@H](CO)N1C(=O)Nc1ccc(F)cc1
AC50 [1]: 13.9 µM

O=C(Cc1ccccn1)NCC[C@@H]1CC[C@@H](NC(=O)Nc2ccc(Cl)cc2)[C@@H](CO)O1
activity change, negative = inhibition ([2]; at 35 µM (top of the series)): -0.581% (inactive)

C[C@@H](NC(=O)C[C@H]1C=C[C@H](NC(=O)Cc2ccccn2)[C@@H](CO)O1)c1ccccc1
activity change, negative = inhibition ([2]; at 35 µM (top of the series)): 2.05% (inactive)

O=C(C[C@@H]1C[C@@H]2c3cc(NC(=O)c4ccc5c(c4)OCO5)ccc3O[C@@H]2[C@@H](CO)O1)NCc1ccc(Oc2ccccc2)cc1
AC50 [1]: 9.85 µM

C[C@H]1CN([C@@H](C)CO)C(=O)c2c(c3ccccc3n2C)-c2ccccc2CO[C@H]1CN(C)C(=O)Nc1ccc(F)cc1
activity change, negative = inhibition ([2]; at 35 µM (top of the series)): 1.49% (inactive)

Cc1noc(C)c1S(=O)(=O)Nc1ccc2c(c1)C(=O)N([C@@H](C)CO)C[C@H](C)[C@@H](CN(C)Cc1ccc(C(F)(F)F)cc1)OCCCC[C@H](C)O2
activity change, negative = inhibition ([2]; at 35 µM (top of the series)): -1.9% (inactive)

COc1ccccc1C(=O)Nc1ccc2c(c1)C(=O)N(C)[C@@H]1CC[C@H](CC(=O)NCCc3ccncc3)O[C@H]1CO2
activity change, negative = inhibition ([2]; at 35 µM (top of the series)): -9.84% (inactive)

O=C(C[C@@H]1C[C@@H]2c3cc(NS(=O)(=O)c4ccc(F)cc4)ccc3O[C@@H]2[C@H](CO)O1)NC1CCCCC1
activity change, negative = inhibition ([2]; at 35 µM (top of the series)): 7.3% (inactive)

Cc1noc(C)c1S(=O)(=O)Nc1ccc2c(c1)C(=O)N([C@H](C)CO)C[C@H](C)[C@H](CN(C)Cc1ccc(C(F)(F)F)cc1)OCCCC[C@H](C)O2
activity change, negative = inhibition ([2]; at 16 µM (top of the series)): -0.443% (inactive)

C[C@@H]1CN([C@@H](C)CO)C(=O)Cc2cc(NC(=O)Cc3ccccc3)ccc2O[C@@H]1CN(C)Cc1ccc(C(F)(F)F)cc1
activity change, negative = inhibition ([2]; at 35 µM (top of the series)): 5.83% (inactive)

C[C@H](NC(=O)C[C@H]1C=C[C@H](NC(=O)Cc2ccccn2)[C@H](CO)O1)c1ccccc1
activity change, negative = inhibition ([2]; at 35 µM (top of the series)): 3.9% (inactive)

C[C@H](NC(=O)C[C@@H]1C=C[C@H](NC(=O)Cc2ccccn2)[C@H](CO)O1)c1ccccc1
activity change, negative = inhibition ([2]; at 30 µM (top of the series)): -8.89% (inactive)

C[C@@H]1CN([C@@H](C)CO)C(=O)c2c(c3ccccc3n2C)-c2ccccc2CO[C@@H]1CN(C)C(=O)Nc1ccc(F)cc1
activity change, negative = inhibition ([2]; at 35 µM (top of the series)): 6.54% (inactive)

CO[C@H]1CN(C)C(=O)c2ccc(NC(=O)C3CC3)cc2OC[C@H](C)N(C(=O)c2ccccn2)C[C@H]1C
activity change, negative = inhibition ([2]; at 35 µM (top of the series)): -14.8% (inactive)

Cc1noc(C)c1S(=O)(=O)Nc1ccc2c(c1)C(=O)N([C@@H](C)CO)C[C@@H](C)[C@@H](CN(C)Cc1ccc(C(F)(F)F)cc1)OCCCC[C@@H](C)O2
activity change, negative = inhibition ([2]; at 35 µM (top of the series)): -7.77% (inactive)

C[C@@H](NC(=O)C[C@H]1C[C@@H]2c3cc(NC(=O)c4cccnc4)ccc3O[C@@H]2[C@@H](CO)O1)c1ccccc1
activity change, negative = inhibition ([2]; at 35 µM (top of the series)): 6.76% (inactive)

Cc1noc(C)c1S(=O)(=O)Nc1ccc2c(c1)C(=O)N([C@H](C)CO)C[C@H](C)[C@H](CN(C)Cc1ccc(C(F)(F)F)cc1)OCCCC[C@@H](C)O2
activity change, negative = inhibition ([2]; at 35 µM (top of the series)): 16.1% (inactive)
